The results in this text go back to patent US8563583B2, “Pyridone analogs useful as melanin concentrating hormone receptor-1 antagonists” (Bristol-Myers Squibb Company, priority 2009, dated 2013).

Structures can show the parent of a compound that is named as a salt.

Sequence of human melanin concentrating hormone receptor (MCHR1) (Q99705 whole entry E4Q/A5T): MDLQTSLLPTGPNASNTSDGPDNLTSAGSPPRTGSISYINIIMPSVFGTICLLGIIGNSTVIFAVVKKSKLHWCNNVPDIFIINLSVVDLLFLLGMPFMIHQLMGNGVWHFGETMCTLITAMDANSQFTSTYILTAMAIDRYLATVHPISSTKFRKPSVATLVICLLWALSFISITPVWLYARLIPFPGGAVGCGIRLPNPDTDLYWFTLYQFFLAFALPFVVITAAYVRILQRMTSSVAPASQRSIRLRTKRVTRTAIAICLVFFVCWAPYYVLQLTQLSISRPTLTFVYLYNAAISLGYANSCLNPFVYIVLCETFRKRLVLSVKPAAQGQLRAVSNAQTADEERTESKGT

The first test concerns SPRAGUE DAWLEY® rats. Kind of test: Assessment of in vivo MCHR1 activity: weight change in rats given a choice of chow and high fat/high sucrose diet. Also noted: species or system rat. The following applies: 30 mg/kg p.o. daily for four days. How it is done: Male SPRAGUE DAWLEY® (CD, Charles River Breeding Laboratory) rats weighing approximately 240 grams were placed in individual plastic cages with ALPHADRI® bedding. The room was maintained at 72° F. and 50% humidity, and a 12/12 light dark cycle with lights out at 1600 hours. The rats were conditioned for 5 days prior to the start of the study to having a choice of foods.
Baseline body weight was measured prior to drug treatment on day 0 of the study. Baseline food consumption was the average of the 3 days prior to the first drug treatment. Drug was administered daily p.o. at 2.0 ml/kg at 1500 hours beginning on day 0 and continuing daily through day 4 as a suspension in 0.5% methyl cellulose, 0.1% Tween 80 in water at 3.0, 10 and 30 mg/kg p.o. All data were evaluated using ANOVA and Fishers PLSD statistics.
In the case of `COc1cc(-n2ccc(COc3ccc(Cl)cc3)cc2=O)ccc1OCC(C)(C)OC(=O)CN` [Example P-1, 1-(4-(4-((4-Chlorophenoxy)methyl)-2-oxopyridin-1(2H)-yl)-2-methoxyphenoxy)-2-methylpropan-2-yl 2-aminoacetate hydrochloride], the “% Weight change versus Control after daily Administration of drug at 30 mg/kg for four days” value came out at 3.4%.

Regarding `COc1cc(-n2ccc(OCc3ccc(Cl)cc3)cc2=O)ccc1OCC(C)(C)OC(=O)CN` [Example P-3], the “% Weight change versus Control after daily Administration of drug at 30 mg/kg for four days” value was determined as 6.1%.

A further test addresses human melanin concentrating hormone receptor (MCHR1) (Homo sapiens (Human), UniProt Q99705, A5T/E4Q). In words: Radioligand binding assay for assessment of MCHR1 activity. Conditions: competition with [Phe13,[125I]Tyr19]-MCH; membranes of HEK-293 cells expressing mutated hMCHR1. The method, then:
Compounds of Formula I were initially characterized in an in vitro binding assay to determine their Ki or ability to antagonize binding of a peptide agonist to the human melanin concentrating hormone receptor (MCHR1). Representative compounds of the present invention had the following Ki values:
Membranes from stably transfected HEK-293 cells expressing a mutated (E4Q, AST) hMCHRI receptor were prepared by dounce homogenization and differential centrifugation. Binding experiments were carried out with 0.5-1.0 ug of membrane protein incubated in a total of 0.2 ml in 25 mM HEPES (pH 7.4) with 10 mM MgCl2, 2 mM EGTA, and 0.1% BSA (Binding Buffer) for 90 min. For competition binding assays, reactions were carried out in the presence of with 0.06-0.1 nM [Phe^13, [^125I]Tyr^19]-MCH and increasing concentrations of unlabeled test molecules. Reactions were terminated by rapid vacuum filtration over 96 well-GFC Unifilter plates pre-coated with 0.075 ml binding buffer containing 1% BSA, and washed 3 times with 0.4 ml of Phospho-buffered Saline (pH 7.4) containing 0.01% TX-100. Filters were dried; 0.05 ml microscint 20 was added to each well and radioactivity was subsequently quantified by scintillation counting on a TOPCOUNT® microplate scintillation counter (Packard). Inhibitory constants were determined by nonlinear least squares analysis using a four parameter logistic equation.
`COc1cc(-n2ccc(COc3ccccc3)cc2=O)ccc1OCC(C)(C)O` [Example A-6] gave a Ki of 2.34 µM. Still for that read-out and setting: then `COc1cc(-n2ccc(CSc3ccc(Cl)cc3)cc2=O)ccc1OCC(C)(C)O` [Example A-29], with 0.029 µM; and `COc1cc(-n2ccc(CNc3ccc(Cl)cc3)cc2=O)ccc1OCC(C)(C)O` [Example A-33], with 0.5 µM; and `COc1cc(-n2ccc(-c3ccc(C(F)(F)F)cc3)cc2=O)ccc1OCC(C)(C)O` [Example B-2], with 0.007 µM. As to `COc1cc(-n2ccc(-c3ccc(OC(F)(F)F)cc3)cc2=O)ccc1OCCO` [Example C-1], the affinity corresponds to a Ki of 0.003 µM. On the same count and under the same terms, to `COc1cc(-n2ccc(SCc3ccc(Cl)cc3)cc2=O)ccc1OCC(C)(C)O` [Example D-4, 4-(4-Chlorobenzylthio)-1-(4-(2-hydroxy-2-methylpropoxy)-3-methoxyphenyl)pyridin-2(1H)-one] belongs 0.004 µM.
